One compound from patent publication US10251937B2, “Retro-inverso analogs of spadin display increased antidepressant effects” (MEDINCELL, priority 2014, dated 2019) can be followed below.

Square brackets hold non-standard residues; d marks the D form. Peptide text beside a SMILES is read from it.

One data set concerns the target T1, TREK-1 channels (Homo sapiens, UniProt O95069).
T1 construct: expressed in transfected cells
T1 sequence (O95069 1-426): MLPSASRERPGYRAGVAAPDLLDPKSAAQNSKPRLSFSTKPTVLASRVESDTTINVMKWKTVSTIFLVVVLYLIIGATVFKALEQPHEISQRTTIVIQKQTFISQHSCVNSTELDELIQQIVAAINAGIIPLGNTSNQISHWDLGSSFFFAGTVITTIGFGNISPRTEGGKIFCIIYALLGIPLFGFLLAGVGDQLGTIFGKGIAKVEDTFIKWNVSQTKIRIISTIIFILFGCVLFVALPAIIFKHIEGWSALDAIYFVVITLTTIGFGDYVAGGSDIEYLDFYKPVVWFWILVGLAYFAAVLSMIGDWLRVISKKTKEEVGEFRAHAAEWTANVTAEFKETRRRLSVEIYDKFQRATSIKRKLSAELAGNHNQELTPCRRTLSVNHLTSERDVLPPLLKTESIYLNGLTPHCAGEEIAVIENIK
The data set is described as follows: TREK-1 current inhibition, whole cell patch clamp on h-TREK-1/HEK cell line. It is filed as cell-based. The protocol: The human-TREK-1/HEK293 cell line (h-TREK-1/HEK) (Moha ou Maati, H. et al. (2011). PloS one, 6 (10), e25602) and HEK-IKS cell line (Ducroq, J. et al, (2010) Br J Pharmacol, 159(1):93-101) were grown in the presence of 0.5 mg/mL G418 in Dulbecco's modified Eagle's medium supplemented with 10% (v/v) heat inactivated fetal bovine serum containing 1% (v/v) penicillin/streptomycin in an atmosphere of 95% air/5% CO2.
All electrophysiological experiments were performed on h-TREK-1/HEK cells seeded at a density of 20 000 cells/35-mm dish after 2-6 days of culture. All electrophysiological recordings were performed in whole cell configuration of the patch clamp technique. Each current was evaluated by using a RK 400 patch clamp amplifier (Axon Instrument, USA), low-pass filtered at 3 kHz and digitized at 10 kHz using a 12-bit analog-to-digital converter digidata (1322 series, Axon Instrument, USA). All current amplitudes are expressed in current densities. Results were expressed as mean±standard error of the mean (SEM). […] The bath solution contained 150 mM NaCl, 5 mM KCl, 3 mM MgCl2, 1 mM CaCl2 and 10 mM HEPES adjusted to pH 7.4 with NaOH. The pipette solution contained 155 mM KCl, 3 mM MgCl2, 5 mM EGTA and 10 mM HEPES adjusted to pH 7.2 with KOH. TREK-1 currents were evaluated in the presence of a cocktail of potassium channel inhibitors (K+ blockers: 3 mM 4-aminopyridine (4-AP), 10 mM tetraethylammonium (TEA), 10 μM glibenclamide, 100 nM apamin and 50 nM charybdotoxin). All experiments were performed at room temperature (21-22° c.). Stimulation protocols and data acquisition were carried out using a microcomputer (Dell Pentium) with a commercial software and hardware (pClamp 8.2). Currents were recorded by voltage clamp steps to membrane potentials of −100 to +60 mV in 20 mV steps applied from a holding potential of −80 mV. Duration of depolarization pulses were […], and the pulse cycling rate was 5 sec. TREK-1 current amplitudes were evaluated at the end of the stimulation pulses. Cells were continuously superfused with a microperfusion system. Inhibitory effects of spadin and analogs were performed on arachidonic acid pre-activated TREK-1 currents. Spadin and analogs were tested at the unique dose of 100 nM. For both Analog 3 (SEQ ID:4) and Analog 8 (SEQ ID:9) concentration-dependant inhibitions were performed by applying concentrations ranging between 1 nM to 1 μM. IKS currents were activated by voltage clamp steps of membrane potentials from −100 to +100 mV in 20 mV steps applied from a holding potential of −80 mV. Tail currents were generated by repolarization to −40 mV. Duration of both depolarization and repolarization pulses were 2.4 s, and the pulse cycling rate was 10 s. IKR currents were activated by voltage clamp steps of membrane potentials from −100 to +100 mV in 10 mV steps applied from a holding potential of […] and tail currents were generated by a repolarization to […]. Duration of both depolarization and repolarization pulses were 1 s, and the pulse cycling rate was 5 s. The amplitudes of IKS and IKR currents were calculated at both the end of the first pulse and the peak of the tail pulse.
Neuropharmacology 62, 278, (2012)) was used as reference.

The target in another data set is human-IKS current (Homo sapiens, UniProt P51787). The data set is described as follows: Cardiac IKs current, whole cell patch clamp in HEK-IKS cell line. On the technique in general: In patch-clamp work, channel activity is measured electrically.
Where [1] appears, read: 0 mV, in the presence of 10 μM, n=5.

Procedure for human-IKS current: All electrophysiological recordings were performed in whole cell configuration of the patch clamp technique. Each current was evaluated by using a RK 400 patch clamp amplifier (Axon Instrument, USA), low-pass filtered at 3 kHz and digitized at 10 kHz using a 12-bit analog-to-digital converter digidata (1322 series, Axon Instrument, USA). All current amplitudes are expressed in current densities. Results were expressed as mean±standard error of the mean (SEM). […] The bath solution contained 150 mM NaCl, 5 mM KCl, 3 mM MgCl2, 1 mM CaCl2 and 10 mM HEPES adjusted to pH 7.4 with NaOH. The pipette solution contained 155 mM KCl, 3 mM MgCl2, 5 mM EGTA and 10 mM HEPES adjusted to pH 7.2 with KOH. […] All experiments were performed at room temperature (21-22° c.). Stimulation protocols and data acquisition were carried out using a microcomputer (Dell Pentium) with a commercial software and hardware (pClamp 8.2). Currents were recorded by voltage clamp steps to membrane potentials of −100 to +60 mV in 20 mV steps applied from a holding potential of −80 mV. Duration of depolarization pulses were 0.825 ms, and the pulse cycling rate was 5 sec. […] Cells were continuously superfused with a microperfusion system. […] IKS currents were activated by voltage clamp steps of membrane potentials from −100 to +100 mV in 20 mV steps applied from a holding potential of −80 mV. Tail currents were generated by repolarization to −40 mV. Duration of both depolarization and repolarization pulses were 2.4 s, and the pulse cycling rate was 10 s. […] The amplitudes of IKS and IKR currents were calculated at both the end of the first pulse and the peak of the tail pulse.

For the compound `CC[C@@H](C)[C@@H](NC(=O)CNC(=O)[C@H](NC(=O)[C@@H](CO)NC(=O)[C@@H](Cc1c[nH]c2ccccc12)NC(=O)CNC(=O)[C@@H](CC(C)C)NC(=O)[C@@H](CCCNC(=N)N)NC(C)=O)C(C)C)C(=O)N1CCC[C@@H]1C(=O)NCC(=O)N[C@H](CO)C(=O)N[C@H](Cc1c[nH]c2ccccc12)C(=O)N[C@H](CCCNC(=N)N)C(=O)N1CCC[C@@H]1C(=O)N[C@H](CC(C)C)C(=O)N1CCC[C@@H]1C(=O)N[C@H](C)C(N)=O` [Analog 3, Ac-rlGwsvGipGswrplpa-NH2] (Ac-[dR][dL]G[dW][dS][dV]G[dI][dP]G[dS][dW][dR][dP][dL][dP][dA]-NH2), the “blockade effect on TREK-1 channel activity compared to spadin” value at TREK-1 channels (100 nM, n=10 to 12) is recorded as “increased blockade effect”. In addition, the “higher affinity for TREK-1 channels than spadin” value at TREK-1 channels (compared to spadin IC50) is 6 fold. In addition, at human-IKS current (setting [1]), the “IKS tail current density” value was 8.33±2.06 pA/pF and the “IKs current density at the end of pulses” value amounted to 17.58±4.03 pA/pF. The “effect on currents generated by IKS channels expressed in HEK cells” value at human-IKS current (10 μM) was “did not modify currents”.
